Measured values from patent publication US20080226718A1, “Indole and Azaindole Derivatives For the Treatment of Inflammatory and Autoimmune Diseases” (Brane Discovery S.r.l, priority 2005, published 2008).

Columns and labels:
[1] = tested on: monocytes; experiment: Chemokine-induced rapid adhesion of monocytes to fibrinogen (fMLP); type: cell-based; conditions: Homo sapiens, Monocyte, fMLP 100 nM; for inhibition at 10 µM: [cpd] 10 μM; for inhibition at 25 µM: [cpd] 25 μM; for inhibition at 50 µM: [cpd] 50 μM
Experimental: (§1) Adhesion was performed on purified integrin ligands and was evaluated as reported in Constantin G. et al., Immunity, 16, 759-769, 2000. Briefly, primary naïve lymphocytes, polymorphonuclear neutrophils (PMNs) or monocytes were isolated form healthy donors. In other experiments, murine autoreactive T cells were obtained from SJL mice immunized with PLP139-151 as described (Piccio L. et al., J. Immunol, 168, 1940-1949, 2002). Cells were resuspended at 4×10^6/ml in PBS, CaCl2, MgCl2 1 mM, 10% FCS, pH 7.2. Adhesion assays were performed on eighteen well glass slides coated overnight at 4° C. with ligands for CR3 (fibrinogen) or LFA-1 (ICAM-1). 20 μl of cell suspension were added to the wells and stimulated at 37° C. with 5 μl of agonists prior to washing, fixation and computer-assisted enumeration of bound cells.
(§2) Integrin activation was measured as induction of rapid adhesion triggered by the classical chemoattractant N-formyl-L-methionyl-L-leucyl-phenylalanine (fMLP) (100 nM) or by the CC chemokine MIP3β (CCL19, 1 μM). PMNs and monocytes were triggered to adhere to fibrinogen (CR3 ligand); naive human lymphocytes or murine encephalitogenic T cells were triggered to adhere to ICAM-1 (LFA-1 ligand). Triggered adhesion was evaluated after 2 min of stimulation under static conditions. The cells were pretreated at 37° C. for 30-60 min with the indicated concentrations of the test compound. Results are expressed as percentage of inhibition over control (=100%) and are the mean of three experiments in the case of human leukocytes. Results are expressed as mean counts and are the mean counts ±S.D of three experiments and are the mean of three experiments in the case of murine encephalitogenic lymphocytes.

[2] = tested on: encephalitogenic lymphocytes; experiment: Spontaneous adhesion of encephalitogenic T cells on purified ICAM-1; type: cell-based, SJL mice; conditions: Mus musculus, Lymphocyte, 1 h; for inhibition at 5 µM: [cpd] 5 μM, read-out: Inhibition of Spontaneous Adhesion in encephalitogenic lymphocytes (% of control/non-treated cells) ICAM-1; for inhibition at 10 µM: [cpd] 10 μM; for inhibition at 10 µM / inhibition at 50 µM: read-out: Inhibition of Spontaneous Adhesion in encephalitogenic lymphocytes (% of control/non-treated cells) ICAM-1 (converted); for inhibition at 50 µM: [cpd] 50 μM
Experimental: Spontaneous adhesion of encephalitogenic lymphocytes was measured in adhesion assays on purified ICAM-1 and VCAM-1 as previously described (Constantin G. et al., J. Immunol. 162, 1144-1149, 1999). Autoreactive T cells were obtained from SJL mice immunized with PLP139-151 as described (Piccio L. et al., J. Immunol. 168, 1940-1949, 2002). Lymphocytes were treated with test compound at concentrations between 5-100 μM for 1 h, while control/untreated cells were treated with vehicle (DMSO). Results are expressed as percentage of inhibition over control (=100%) ±S.D and are the mean of three-four experiments.
ICAM-1 and VCAM-1 are adhesion molecules from the family of immunoglobulins and control the migration of lymphocytes through the endothelium during inflammatory responses. Encephalitogenic T cells are activated lymphocytes displaying spontaneous adhesion on ICAM-1 and VCAM-1 and have increased migration capacities in inflammation sites. Spontaneous adhesion of encephalitogenic lymphocytes was measured in adhesion assays on purified ICAM-1 and VCAM-1 as described in the method.

[3] = tested on: PMNs; experiment: Chemotaxis assay, PMNs (fMLP); type: cell-based; conditions: Homo sapiens, fMLP 10 nM, 2 h; for inhibition at 10 µM: [cpd] 10 μM; for inhibition at 25 µM: [cpd] 25 μM; for inhibition at 50 µM: [cpd] 50 μM
Experimental: (§3) PMNs and monocytes migration was assessed using 1 or 3-μm pore size transwells (Bio-Coat Becton-Dickinson), while lymphocytes by using 5-elm pore size transwells.
(§4) Cells were in RPMI1640, containing 10% heat-inactivated Fetal Calf Serum (FCS) and 20 mM HEPES, pH 7.3, at 2×10^6/ml. 100 μl of cell suspension were added to the top well, and 600 μl of medium, containing chemoattractants and test compound, were added to the bottom well. Migration was evaluated after 2 h for PMNs and monocytes and after 4 h for lymphocytes. fMLP 10 nM (PMNs and monocytes) and MIP-3β 100 nM (lymphocytes) were utilized as chemoattractants. After fixation with 1.5% glutaraldehyde, migrated cells were counted by fluorescence-activated celli sorting using polystyrene beads (Polyscience) as an internal standard (Campbell J. J. et al. J. Cell. Biol. 134, 255-266, 1996; Laudanna C. et al. J. Biol. Chem. 273,46, 30306-30315, 1998).
(§5) Results are expressed as percentage of inhibition over control (=100%), and are the mean of three experiments.

[4] = tested on: lymphocytes; experiment: Chemokine-induced rapid adhesion of lymphocytes to ICAM-1 (MIP3β); type: cell-based; conditions: Homo sapiens, Lymphocyte, MIP3β 1 μM; for inhibition at 10 µM: [cpd] 10 μM, read-out: Inhibition of Adhesion (%) Lymphocytes (MIP3-β); for inhibition at 25 µM: [cpd] 25 μM; for inhibition at 25 µM / inhibition at 50 µM: read-out: Inhibition of Adhesion (%) Lymphocytes (MIP3-β) (converted); for inhibition at 50 µM: [cpd] 50 μM
Experimental: as §1, §2
(§6) Integrin activation was measured as induction of rapid adhesion triggered by the “classical” chemoattractant fMLP (100 nM) or by the CC chemokine MIP3β (CCL19, 1 μM). PMNs were triggered to adhere to fibrinogen (CR3 ligand); lymphocytes were triggered to adhere to ICAM-1 (LFA-1 ligand).

[5] = tested on: monocytes; experiment: Chemotaxis assay, monocytes (fMLP); type: cell-based; conditions: Homo sapiens, Monocyte, fMLP 10 nM, 2 h; for inhibition at 10 µM: [cpd] 10 μM; for inhibition at 25 µM: [cpd] 25 μM; for inhibition at 50 µM: [cpd] 50 μM
Experimental: as §3, §4, §5

[6] = tested on: lymphocytes; experiment: Chemotaxis assay, lymphocytes (MIP-3β); type: cell-based; conditions: Homo sapiens, Lymphocyte, MIP-3β 100 nM, 4 h; for inhibition at 10 µM: [cpd] 10 μM, read-out: Inhibition of Chemotaxis (%) Lymphocytes (MIP3-β); for inhibition at 25 µM: [cpd] 25 μM; for inhibition at 25 µM / inhibition at 50 µM: read-out: Inhibition of Chemotaxis (%) Lymphocytes (MIP3-β) (converted); for inhibition at 50 µM: [cpd] 50 μM
Experimental: as §3, §4, §5

[7] = tested on: PMNs; experiment: Chemokine-induced rapid adhesion of PMNs to fibrinogen (fMLP); type: cell-based; conditions: Homo sapiens, 2 min, fMLP 100 nM; for inhibition at 10 µM: [cpd] 10 μM; for inhibition at 25 µM: [cpd] 25 μM; for inhibition at 50 µM: [cpd] 50 μM
Experimental: as §1, §2, §6

[8] = tested on: encephalitogenic lymphocytes; experiment: Chemokine-induced adhesion of murine encephalitogenic T cells to ICAM-1; type: cell-based, SJL mice; conditions: ICAM-1; for Chemokine-induced Adhesion in encephalitogenic lymphocytes, Mean counts ± S.D., in presence of MIP3-β stimulation: 1 μM CCL19 (MIP-3beta)
Experimental: as §1, §2
Chemokines trigger rapid arrest of lymphocytes in blood vessels through pertussis toxin-sensitive G protein coupled receptors. Rapid adhesion to purified ICAM-1 was measured in in vitro adhesion assays using control/untreated cells and lymphocytes treated with concentration between 5-50 μM for 1 h. Autoreactive lymphocytes were then stimulated with 1 μM CCL19 (MIP-3beta) for 3 min. […] These compounds were already efficient in blocking adhesion using a concentration of 5 μM for the cell treatment.

Structure (SMILES)	inhibition at 10 µM [1] [%]	inhibition at 25 µM [1] [%]	inhibition at 50 µM [1] [%]	inhibition at 5 µM [2] [%]	inhibition at 10 µM [2] [%]	inhibition at 50 µM [2] [%]	inhibition at 10 µM [3] [%]	inhibition at 25 µM [3] [%]	inhibition at 50 µM [3] [%]	inhibition at 10 µM [4] [%]	inhibition at 25 µM [4] [%]	inhibition at 50 µM [4] [%]	inhibition at 10 µM [5] [%]	inhibition at 25 µM [5] [%]	inhibition at 50 µM [5] [%]	inhibition at 10 µM [6] [%]	inhibition at 25 µM [6] [%]	inhibition at 50 µM [6] [%]	inhibition at 10 µM [7] [%]	inhibition at 25 µM [7] [%]	further results
COc1cc2[nH]c(C(=O)N(C)C)c(-c3ccccc3)c2cc1OC [Example 46]	12.6	32.2	37.6	15.8	25.9	96.3	65.3	74.5	93.1	34.1	58.8	67.1	48.2	63.8	89.9	19.9	45	85	16.7	28.7	inhibition at 50 µM [7]: 38.4%
COc1ccc(-c2c(C(N)=O)[nH]c3cc(OC)c(OC)cc23)cc1 [Example 14]	–	–	–	–	–	–	–	–	–	–	–	–	–	–	–	–	–	–	–	–	Chemokine-induced Adhesion in encephalitogenic lymphocytes, Mean counts ± S.D., in presence of MIP3-β stimulation ([8]; [cpd] 1 μM): 120.3 ± 9.8; Adhesion in encephalitogenic lymphocytes, Mean counts ± S.D., in absence of MIP3-β stimulation ([8]; [cpd] 1 μM): 67.6 ± 2.0; Chemokine-induced Adhesion in encephalitogenic lymphocytes, Mean counts ± S.D., in presence of MIP3-β stimulation ([8]; [cpd] 5 μM): 101.2 ± 6.1; Adhesion in encephalitogenic lymphocytes, Mean counts ± S.D., in absence of MIP3-β stimulation ([8]; [cpd] 5 μM): 41.8 ± 4.2; Chemokine-induced Adhesion in encephalitogenic lymphocytes, Mean counts ± S.D., in presence of MIP3-β stimulation ([8]; [cpd] 50 μM): 56.8 ± 2.2; Adhesion in encephalitogenic lymphocytes, Mean counts ± S.D., in absence of MIP3-β stimulation ([8]; [cpd] 50 μM): 20.9 ± 11.7
COc1ccc(-c2c(C#N)n(CCN(C)C)c3cc(OC)c(OC)cc23)cc1 [Example 18]	7.8	14.7	31.2	28.7	36.8	96.9	52.3	77.6	91.2	66.3	91.4	95.1	17.3	62.1	84.5	51	86.7	92.3	2.2	10.4	inhibition at 50 µM [7]: 26.7%
